Measured values published in patent US20100113421A1, “NON-NUCLEOSIDE REVERSE TRANSCRIPTASE INHIBITORS” (priority 2006, published 2010).

Test system: HIV strain containing the Y181C mutation
Experiment: Spread assay, Y181C mutant strain
Type: cell-based
Details: Human immunodeficiency virus 1; spread assay, 10% FBS, Y181C mutant strain; read-out: CIC95
Description: Assays for the inhibition of acute HIV-1 infection of T-lymphoid cells (alternatively referred to herein as the “spread assay”) were conducted in accordance with Vacca, J. P. et al., Proc. Natl. Acad. Sci. USA 1994, 91: 4096. The assays (using 10% FBS) tested for inhibition of wild type HIV-1 and of HIV strains containing the Y181C or K103N mutation. […] (Note that the compound of Example 6 was tested only up to a 833 nM concentration and the CIC95 value was determined to be >833 nM. The compound of Example 78 was not tested in the Y1818C assay.) The compounds of Examples 1 to 119 (including Examples 70A and 70B) had CIC95 values of less than 1000 nanomolar in the assay employing the K103N mutant strain. In an analogous assay employing a mutant strain containing both the K103N and Y181C mutations, the compounds of Examples 70A, 70B and 78-115 had CIC95 values of less than 1000 nanomolar.

Row | SMILES | IC95
1 | CCc1c(C(=O)N(C)Cc2ccc3ncccc3c2)[nH]c(C(N)=O)c1S(=O)(=O)c1ccccc1 [Example 60, 3-ethyl-N-methyl-4-(phenylsulfonyl)-N-(6-quinolinylmethyl)-1H-pyrrole-2,5-dicarboxamide] | < 8 µM
2 | Cc1c(C(=O)N(C)Cc2ccccc2F)[nH]c(C(N)=O)c1S(=O)(=O)c1cccc(F)c1 [Example 16, N-(2-fluorobenzyl)-N,3-dimethyl-4-(3-fluorophenylsulfonyl)-1H-pyrrole-2,5-dicarboxamide] | < 8 µM
3 | CCc1c(C(=O)N(C)Cc2ccc(Cl)cc2Cl)[nH]c(C(N)=O)c1S(=O)(=O)c1ccccc1 [Example 59, N-(2,4-dichlorobenzyl)-3-ethyl-N-methyl-4-(phenylsulfonyl)-1H-pyrrole-2,5-dicarboxamide] | < 8 µM
4 | Cc1c(C(=O)N(C)Cc2ccccc2Cl)[nH]c(C(N)=O)c1S(=O)(=O)c1cccc(Cl)c1 [Example 20, N-(2-chlorobenzyl)-N,3-dimethyl-4-(3-chlorophenylsulfonyl)-1H-pyrrole-2,5-dicarboxamide] | < 8 µM
5 | Cc1c(C(=O)N(C)Cc2ccc(Cl)c(Cl)c2)[nH]c(C(N)=O)c1S(=O)(=O)c1ccccc1 [Example 14, N-(3,4-dichlorobenzyl)-N,3-dimethyl-4-(phenylsulfonyl)-1H-pyrrole-2,5-dicarboxamide] | < 8 µM
6 | Cc1c(C(=O)N(C)Cc2ccc(Br)cc2)[nH]c(C(N)=O)c1S(=O)(=O)c1ccccc1 [Example 11, N-(4-bromobenzyl)-N,3-dimethyl-4-(phenylsulfonyl)-1H-pyrrole-2,5-dicarboxamide] | < 8 µM
7 | Cc1c(C(=O)N(C)Cc2cccc(Cl)c2Cl)[nH]c(C(N)=O)c1S(=O)(=O)c1ccccc1 [Example 13, N-(2,3-dichlorobenzyl)-N,3-dimethyl-4-(phenylsulfonyl)-1H-pyrrole-2,5-dicarboxamide] | < 8 µM
8 | Cc1c(C(=O)N(C)Cc2ccc(Cl)cc2Cl)[nH]c(C(N)=O)c1S(=O)(=O)c1cccc(Cl)c1 [Example 21, N-(2,4-dichlorobenzyl)-N,3-dimethyl-4-(3-chlorophenylsulfonyl)-1H-pyrrole-2,5-dicarboxamide] | < 8 µM
9 | Cc1c(C(=O)N(C)Cc2ccccc2F)[nH]c(C(N)=O)c1S(=O)(=O)c1cc(Cl)cc(Cl)c1 [Example 33, N-(2-fluorobenzyl)-N,3-dimethyl-4-(3,5-dichlorophenylsulfonyl)-1H-pyrrole-2,5-dicarboxamide] | < 8 µM
10 | Cc1cnccc1CNC(=O)c1[nH]c(C(=O)N(C)Cc2ccc(Cl)cc2Cl)c(C)c1S(=O)(=O)c1ccccc1 [Example 73, N-(2,4-dichlorobenzyl)-N,3-dimethyl-N′-[(3-methyl-4-pyridinyl)methyl]-4-(phenylsulfonyl)-1H-pyrrole-2,5-dicarboxamide] | < 8 µM
11 | Cc1c(C(=O)N(C)Cc2ccccc2F)[nH]c(C(N)=O)c1S(=O)(=O)c1ccccc1 [Example 7, N-(2-fluorobenzyl)-N,3-dimethyl-4-(phenylsulfonyl)-1H-pyrrole-2,5-dicarboxamide] | < 8 µM
12 | Cc1c(C(=O)N(C)Cc2ccccc2)[nH]c(C(N)=O)c1S(=O)(=O)c1cc(Cl)cc(Cl)c1 [Example 32, N-benzyl-N,3-dimethyl-4-(3,5-dichlorophenylsulfonyl)-1H-pyrrole-2,5-dicarboxamide] | < 8 µM
13 | Cc1c(C(=O)N(C)Cc2ccc3ncccc3c2)[nH]c(C(N)=O)c1S(=O)(=O)c1cccc(F)c1 [Example 45] | < 8 µM
14 | Cc1cc(C)cc(S(=O)(=O)c2c(C(N)=O)[nH]c(C(=O)N(C)Cc3ccc(Cl)cc3F)c2C)c1 [Example 26, N-(4-chloro-2-fluorobenzyl)-N,3-dimethyl-4-(3,5-dimethylphenylsulfonyl)-1H-pyrrole-2,5-dicarboxamide] | < 8 µM
15 | CC(C)c1c(C(=O)N(C)Cc2ccc(Cl)cc2Cl)[nH]c(C(N)=O)c1S(=O)(=O)c1ccccc1 [Example 63, N-(2,4-dichlorobenzyl)-3-isopropyl-N-methyl-4-(phenylsulfonyl)-1H-pyrrole-2,5-dicarboxamide] | < 8 µM
16 | Cc1c(C(=O)N(C)Cc2ccc(Cl)cc2Cl)[nH]c(C(=O)NCc2n[nH]c3ccccc23)c1S(=O)(=O)c1ccccc1 [Example 71, N-(2,4-Dichlorobenzyl)-N′-(1H-indazol-3-ylmethyl)-N,3-dimethyl-4-(phenylsulfonyl)-1H-pyrrole-2,5-dicarboxamide] | < 8 µM
17 | Cc1c(C(=O)N(C)Cc2ccc3ncccc3c2)[nH]c(C(N)=O)c1S(=O)(=O)c1cccc(C(F)(F)F)c1 [Example 46, N,3-dimethyl-N-(6-quinolinylmethyl)-4-{[3-(trifluoromethyl)phenyl]sulfonyl}-1H-pyrrole-2,5-dicarboxamide] | < 8 µM
18 | CCCc1c(C(=O)N(C)Cc2ccc3ncccc3c2)[nH]c(C(N)=O)c1S(=O)(=O)c1ccccc1 [Example 65, N-methyl-4-(phenylsulfonyl)-3-propyl-N-(6-quinolinylmethyl)-1H-pyrrole-2,5-dicarboxamide] | < 8 µM

Row | SMILES | IC95
19 | Cc1c(C(=O)N(C)Cc2ccc3ncccc3c2)[nH]c(C(N)=O)c1S(=O)(=O)c1ccccc1 [Example 43] | < 8 µM
20 | Cc1c(C(=O)N(C)Cc2ccccc2Br)[nH]c(C(N)=O)c1S(=O)(=O)c1ccccc1 [Example 9, N-(2-bromobenzyl)-N,3-dimethyl-4-(phenylsulfonyl)-1H-pyrrole-2,5-dicarboxamide] | < 8 µM
21 | Cc1c(C(=O)N(C)Cc2ccc(Cl)cc2Cl)[nH]c(C(=O)NCc2c(F)cccc2Cl)c1S(=O)(=O)c1ccccc1 [Example 77, N′-(2-chloro-6-fluorobenzyl)-N-(2,4-dichlorobenzyl)-N,3-dimethyl-4-(phenylsulfonyl)-1H-pyrrole-2,5-dicarboxamide] | < 8 µM
22 | Cc1c(C(=O)N(C)Cc2ccccc2Cl)[nH]c(C(N)=O)c1S(=O)(=O)c1cc(F)cc(Cl)c1 [Example 30, N-(2-chlorobenzyl)-N,3-dimethyl-4-(3-chloro-5-fluorophenylsulfonyl)-1H-pyrrole-2,5-dicarboxamide] | < 8 µM
23 | Cc1c(C(=O)N(C)Cc2ccc(S(C)(=O)=O)cc2Cl)[nH]c(C(N)=O)c1S(=O)(=O)c1ccccc1 [Example 15, N-(2-chloro-4-methylsulfonylbenzyl)-N,3-dimethyl-4-(phenylsulfonyl)-1H-pyrrole-2,5-dicarboxamide] | < 8 µM
24 | CNC(=O)c1[nH]c(C(=O)N(C)Cc2ccc(Cl)cc2Cl)c(C)c1S(=O)(=O)c1ccccc1 [Example 72, N-(2,4-dichlorobenzyl)-N,N′,3-trimethyl-4-(phenylsulfonyl)-1H-pyrrole-2,5-dicarboxamide] | < 8 µM
25 | CC(C)c1c(C(=O)N(C)Cc2ccccc2)[nH]c(C(N)=O)c1S(=O)(=O)c1ccccc1 [Example 58, N-Benzyl-3-isopropyl-N-methyl-4-(phenylsulfonyl)-1H-pyrrole-2,5-dicarboxamide] | < 8 µM
26 | Cc1c(C(=O)N(C)Cc2cccc(Cl)c2)[nH]c(C(N)=O)c1S(=O)(=O)c1ccccc1 [Example 10, N-(3-chlorobenzyl)-N,3-dimethyl-4-(phenylsulfonyl)-1H-pyrrole-2,5-dicarboxamide] | < 8 µM
27 | Cc1c(C(=O)N(C)Cc2cc3cccnc3cc2Cl)[nH]c(C(N)=O)c1S(=O)(=O)c1cc(F)cc(Cl)c1 [Example 53, 4-[(3-chloro-5-fluorophenyl)sulfonyl]-N-[(7-chloro-6-quinolinyl)methyl]-N,3-dimethyl-1H-pyrrole-2,5-dicarboxamide] | < 8 µM
28 | Cc1c(C(=O)N(C)Cc2cc3cccnc3cc2Cl)[nH]c(C(N)=O)c1S(=O)(=O)c1cc(F)cc(F)c1 [Example 50, N-[(7-chloro-6-quinolinyl)methyl]-4-[(3,5-difluorophenyl)sulfonyl]-N,3-dimethyl-1H-pyrrole-2,5-dicarboxamide] | < 8 µM
29 | Cc1c(C(=O)N(C)Cc2ccccc2)[nH]c(C(N)=O)c1S(=O)(=O)c1cc(F)cc(Cl)c1 [Example 28, N-benzyl-N,3-dimethyl-4-(3-chloro-5-fluorophenylsulfonyl)-1H-pyrrole-2,5-dicarboxamide] | < 8 µM
30 | Cc1cc(C)cc(S(=O)(=O)c2c(C(N)=O)[nH]c(C(=O)N(C)Cc3cc4cccnc4cc3Cl)c2C)c1 [Example 48, N-[(7-chloro-6-quinolinyl)methyl]-4-[(3,5-dimethylphenyl)sulfonyl]-N,3-dimethyl-1H-pyrrole-2,5-dicarboxamide] | < 8 µM
31 | CCCCc1c(C(=O)N(C)Cc2ccc3ncccc3c2)[nH]c(C(N)=O)c1S(=O)(=O)c1cc(Cl)cc(Cl)c1 [Example 70, 3-butyl-4-[(3,5-dichlorophenyl)sulfonyl]-N-methyl-N-(6-quinolinylmethyl)-1H-pyrrole-2,5-dicarboxamide] | < 8 µM
32 | Cc1c(C(=O)N(C)Cc2ccc3ncccc3c2)[nH]c(C(N)=O)c1S(=O)(=O)c1cc(Cl)cc(C#N)c1 [Example 57] | < 8 µM
33 | Cc1c(C(=O)N(C)Cc2ccc(Cl)cc2Cl)[nH]c(C(N)=O)c1S(=O)(=O)c1cccc(C(F)(F)F)c1 [Example 23, N-(2,4-dichlorobenzyl)-N,3-dimethyl-4-(3-trifluoromethylphenylsulfonyl)-1H-pyrrole-2,5-dicarboxamide] | < 8 µM
34 | CC(C)c1c(C(=O)N(C)Cc2ccc(Cl)cc2F)[nH]c(C(N)=O)c1S(=O)(=O)c1ccccc1 [Example 62, N-(4-chloro-2-fluorobenzyl)-3-isopropyl-N-methyl-4-(phenylsulfonyl)-1H-pyrrole-2,5-dicarboxamide] | < 8 µM
35 | Cc1c(C(=O)N(C)Cc2ccccc2Cl)[nH]c(C(N)=O)c1S(=O)(=O)c1cccc(F)c1 [Example 17, N-(2-chlorobenzyl)-N,3-dimethyl-4-(3-fluorophenylsulfonyl)-1H-pyrrole-2,5-dicarboxamide] | < 8 µM
